# Reference: patent publication US5641760A, “Method of treating candida infection” (Pence, Inc., priority 1994, dated 1997)
# Tested on: Candida albicans strain #40 fimbriae (enriched fimbriae EF, 66 kDa fimbrial subunit/adhesin protein)
# Test: Inhibition of fimbriae binding to immobilized βGalNAc(1-4)βGal-BSA conjugate
# Conditions: plates coated with 10 μg/ml conjugate
# Method: Further experiments to determine the specificity of fimbrial binding to GSLs were carried out using a plate binding assay, as described above, but immobilizing on the plates a βGalNAc(1-4)βGal-BSA conjugate, synthesized from βGalNAc(1-4)βGal-O(CH2)8 COOCH3 (Sabesan and Lemieux), as described in Part B, above. The coupling ratio of disaccharide: BSA was 12:1. The protocol utilized for this assay was similar to that employed for the assessment of C. albicans fimbriae binding to GSLs except that the plates were coated with 100 μl/well of a 10 μg/ml solution of synthetic βGalNAc(1-4)βGal-BSA conjugate in 0.01M carbonate buffer, pH 9.5.
# Using this assay, it was first determined that fimbriae bind to the βGalNAc(1-4)βGal-BSA conjugate in a saturable, concentration-dependent manner. FIGS. 12A and 12B show the results of experiments in which compounds were tested for ability to inhibit binding of fimbriae to the βGalNAc(1-4)βGal-BSA conjugate. The protocol used in this assay was similar to the one used in the GSL inhibition assay described above, except that the plates were coated with 100 μl/well of a 10 μg/ml solution of synthetic βGalNAc(1-4)βGal-BSA conjugate in 0.01M carbonate buffer, pH 9.5. As depicted in FIG. 12A, βGalNAc(1-4)βGal-methylester ("GalNAcGal") was able to inhibit binding to the GalNAcGal-BSA conjugate in a concentration dependent manner. […]
substance,measurement,value
gangliotetraosylceramide: βGal(1-3)βGalNAc(1-4)βGal(1-4)βGlc(1-1)Cer [asialo-GM1],Concentration required for half-maximal inhibition of fimbriae binding to βGalNAc(1-4)βGal-BSA conjugate,7.5 µg/mL
